Reference: the OligoGym collection
“And” between values parts separate entries of the source, which are not always exact repeats. Equal values may be shown once. After the bases stand the sugars from the 5' end (letter, count) and the backbone: PS all phosphorothioate, else s phosphorothioate and o phosphodiester by linkage. Methylation of C is not given here. e = 2'-O-(2-methoxyethyl) (MOE); k = constrained ethyl (cEt); d = 2'-deoxy (DNA)

Target: IRF4
Conditions: ASO

Sequence | target mRNA inhibition (SK-MEL-28, 4 µM) [%] | target mRNA inhibition (MM.1R, 1 µM) | further results
AGCCACGAGGCACCGC (sugars k3 d10 k3, PS) | 12 | – | –
GCGCATCCCCTGGGCG (sugars k3 d10 k3, PS) | -4 | – | –
TGTGCTTGCCAAGCCT (sugars kkdddddddddkdkdk, PS) | – | 23% and 21% | –
ACCCTCCCCAACTTAA (sugars k3 d10 k3, PS) | 10 | – | –
GTACAGTCCACTCCAC (sugars k3 d10 k3, PS) | 10 | – | –
TCTTGAATAGAGGAAT (sugars k3 d10 k3, PS) | 42 | – | –
GTGACTGGAGAGCAAT (sugars k3 d10 k3, PS) | 74 | – | –
CCAAAGGGTTCAGTGT (sugars k3 d10 k3, PS) | 26 | – | –
ATCGAGATCAGTCTCA (sugars k3 d10 k3, PS) | 76 | – | –
AGCAGTGATGTCAGGT (sugars kkdddddddddekeke, PS) | – | 72% and 70% and 69% | target mRNA inhibition (MM.1R, 0.0625 µM): 32%; target mRNA inhibition (MM.1R, 0.25 µM): 54%; target mRNA inhibition (MM.1R, 4 µM): 86%
GTAACTCAGGCACCAC (sugars k3 d10 k3, PS) | 47 | – | –
TGCATCTATAAGATGT (sugars k4 d8 k4, PS) | 10 | – | –
AAGCATTTTATCATCC (sugars kkddddddddddkeke, PS) | – | 20% | –
CAGTTGTAAATGAGTC (sugars k3 d9 k3 e1, PS) | – | 68% | target mRNA inhibition (MM.1R, 0.074 µM): 26%; target mRNA inhibition (MM.1R, 0.222 µM): 42%; target mRNA inhibition (MM.1R, 0.666 µM): 65%; target mRNA inhibition (MM.1R, 2 µM): 84%
AGTGATGAGATATTCC (sugars k3 d10 k3, PS) | 59 | – | –
TAGATAACATGAGAGT (sugars k3 d10 k3, PS) | 50 | – | –
TTACCGCATTGCTAGA (sugars k3 d10 k3, PS) | – | 13% and 26% | –
GGCAGTGGAGCTCCAC (sugars k3 d10 k3, PS) | 73 | – | –
TCACTATTAAACAGCA (sugars k3 d10 k3, PS) | 16 | – | –
GTATTTTTCCGTTCCT (sugars k3 d10 k3, PS) | – | 84% and 74% | target mRNA inhibition (H929, 0.04 µM): 33% and 14%; target mRNA inhibition (KMS11, 0.2 µM): 82% and 96%; target mRNA inhibition (MM.1R, 0.0625 µM): 34%; target mRNA inhibition (MM.1R, 0.25 µM): 57%; target mRNA inhibition (MM.1R, 4 µM): 93%
TTTATGTTAGCCAATT (sugars kkdddddddddkdkdk, PS) | – | 11% and 34% | –
GTCTGGCTAGCAGAGG (sugars k3 d10 k3, PS) | 66 | – | target mRNA inhibition (SK-MEL-28, 0.185 µM): 10%; target mRNA inhibition (SK-MEL-28, 5 µM): 68%; target mRNA inhibition (SK-MEL-28, 15 µM): 89%
GTAACTGACACGCACA (sugars k3 d10 k3, PS) | 51 | – | –
GAAGAATAAACACCCC (sugars k3 d10 k3, PS) | 52 | – | –
GGCCATTCGAGGTGAT (sugars k3 d10 k3, PS) | – | 1% | –

Sequence | target mRNA inhibition (SK-MEL-28, 4 µM) [%] | target mRNA inhibition (MM.1R, 1 µM) | further results
TACCGCATTGCTAGAT (sugars k3 d10 k3, PS) | 23 | – | –
GAAGTTTACACTGGAT (sugars kddddddddddkekek, PS) | – | 27% | –
AGATACAAAACGGACT (sugars k3 d10 k3, PS) | – | -15% | –
AAGTGTCTAAAGTCCC (sugars kdddddddddkekeke, PS) | – | 4% and 5% | –
ACAGTAAGAGGGCAGT (sugars k3 d10 k3, PS) | 84 | – | –
CATAGCTAGTTCATTC (sugars k3 d10 k3, PS) | 35 | – | –
CTTCACTACCTGCAGC (sugars k3 d10 k3, PS) | 22 | – | –
AAGCCTAGAGGTGCCT (sugars k3 d10 k3, PS) | – | 29% | –
GAGGAACTAGTCGACA (sugars k3 d10 k3, PS) | 39 | – | –
TGGAACAGTAACTTGA (sugars k3 d10 k3, PS) | 12 | – | –
TCCAACAGGCGGACAC (sugars k3 d10 k3, PS) | 29 | – | –
AGACCAGGATTCGCCA (sugars k3 d10 k3, PS) | 33 | – | –
CATTACTAGATTGTAG (sugars k3 d10 k3, PS) | 9 | – | –
GCTTCAAGACAGGTCT (sugars k3 d10 k3, PS) | – | 29% | –
TAAGCAAGTGGAGGTC (sugars k3 d10 k3, PS) | 47 | – | –
GGGTACCCTGCGCTGC (sugars k3 d10 k3, PS) | 44 | – | –
ATCAGATACACACCCT (sugars k3 d10 k3, PS) | -8 | – | –
ACCTCAGTTTGTGAAG (sugars kkddddddddddkeke, PS) | – | -12% | –
AACGGCCTGGAGGTGA (sugars k3 d10 k3, PS) | – | 1% | –
TGCGAAGAATTTTAGC (sugars k3 d10 k3, PS) | 41 | – | –
CCACATACCTGAAACG (sugars k3 d10 k3, PS) | – | -9% | –
CCCCAGGGCCCTCGGT (sugars k3 d10 k3, PS) | 18 | – | –
AAAAGTAACTGACACG (sugars k3 d10 k3, PS) | 61 | – | –
AATTGGCACGAGGAAG (sugars k3 d10 k3, PS) | 28 | – | –
GGTGGCTCAGCAGCTT (sugars k3 d10 k3, PS) | 37 | – | –

Sequence | target mRNA inhibition (SK-MEL-28, 4 µM) [%] | target mRNA inhibition (MM.1R, 1 µM) | further results
CTATGCTAGAGAACAT (sugars k3 d10 k3, PS) | 23 | – | –
CCTGAGACAGACTTCC (sugars k3 d10 k3, PS) | 55 | – | –
GTCTTCCACAAGAACT (sugars k3 d10 k3, PS) | 47 | – | –
GATCATAAAGGACAAT (sugars k3 d10 k3, PS) | 30 | – | –
ACTCATAGGTGTACAC (sugars k3 d10 k3, PS) | 45 | – | –
GACACTTTTAGAGAGG (sugars e1 k2 d9 k2 e2, PS) | – | 24% | –
GGCCTTGCCAGTGGTG (sugars k3 d10 k3, PS) | -12 | – | –
CTGCTTGAGGTTTTCC (sugars e1 k2 d9 k2 e2, PS) | – | 52% | target mRNA inhibition (MM.1R, 0.074 µM): 6%; target mRNA inhibition (MM.1R, 0.222 µM): 21%; target mRNA inhibition (MM.1R, 0.666 µM): 38%; target mRNA inhibition (MM.1R, 2 µM): 60%
TTATATACTGGTTGGT (sugars kkdddddddddkdkdk, PS) | – | 18% | –
GTAACTTGACTTGAGA (sugars k3 d10 k3, PS) | 49 | – | –
AAGCAGTGATGTCAGG (sugars kkdddddddddkekek, PS) | – | 43% and 44% | –
TCTATAGTGTTCCAGG (sugars k3 d9 k3 e1, PS) | – | 52% | –
AATATAGTTGTCTGGC (sugars k3 d10 k3, PS) | 50 | – | –
GGTAAAGGCACATTCC (sugars k3 d10 k3, PS) | 47 | – | –
ACCTGGCAACCATTTT (sugars k4 d8 k4, PS) | 19 | – | –
GACAGTGACTTGCATC (sugars kkdddddddddekeke, PS) | – | 30% | –
GAAGCATTTTATCATC (sugars k3 d10 k3, PS) | – | 4% | –
CCTCTGAGCAGAACGA (sugars k3 d10 k3, PS) | 76 | – | –
TCATTAGAAAGCCCTC (sugars k3 d10 k3, PS) | – | -19% | –
GAAGAGATCAGCTGCC (sugars k3 d10 k3, PS) | 42 | – | –
GACTAACTCTCCTGTT (sugars k3 d10 k3, PS) | 17 | – | –
ACTGCTTGAGGTTTTC (sugars k2 d9 e3 k2, PS) | – | 45% | –
GCACATCAATGTTTTA (sugars kkdddddddddekeke, PS) | – | 10% and 12% | –
